Results: EP0567324A1, “Medicaments for treating gar-transformylase-dependent tumors” (ELI LILLY AND COMPANY, priority 1992, dated 1993)

Legend:
[1] = tested on: aggressive soft tissue sarcoma characterized as either a malignant Schwannoma or a tendosynovial sarcoma; conditions: human, in vivo
[2] = tested on: adenocarcinoma originating in the ethmoid sinus; conditions: human, in vivo

Question: How did the “clinical response in the irradiated field” value [1] turn out when `Nc1nc2c(c(=O)[nH]1)C[C@@H](CCc1ccc(C(=O)N[C@@H](CCC(=O)O)C(=O)O)cc1)CN2` [Lometrexol, 5,10-dideaza-5,6,7,8-tet-rahydrofolic acid] was run?
Answer: dramatic

Question: What about the “lometrexol retention in the patients body” value [1] of the same molecule?
Answer: prolonged

Question: And the “mucositis due to the drug” value [1]?
Answer: mild mucositis

Question: And the “thrombocytopenia to” value [1]?
Answer: 55,000

Question: What about the “tumor course after lometrexol, before radiation” value [1] of the same molecule?
Answer: continued to rapidly progress

Question: And the “change of massively enlarged liver (hepatic metastases) after treatment” value [2]?
Answer: marked shrinkage

Question: And the “duration of prolonged thrombocytopenia and anemia” value [2]?
Answer: over 7 weeks

Question: And the “persistent anemia at a Hgb of” value [2]?
Answer: 5.4
